Laboratory results as given in ChEMBL document CHEMBL4020771, “Activity of resveratrol triesters against primary acute lymphoblastic leukemia cells” (Bioorg Med Chem Lett, 2017).
Active and inactive are the calls of the source. No cut-off for these calls is given here.

Experiments:
[1] = Cytotoxicity against human ALL5 cells after 120 hrs by MTT method; format: functional, cell-based; conditions: ALL5, 120 h
[2] = Cell cycle arrest in human ALL5 cells assessed as accumulation at G2 phase at 25 uM after 96 hrs by propidium iodide staining based flow cytometric analysis (reference value: 13.6 %); format: functional
[3] = Cell cycle arrest in human ALL5 cells assessed as accumulation at G1 phase at 25 uM after 96 hrs in presence of CDK4/6 inhibitor palbociclib by propidium iodide staining based flow cytometric analysis (reference value: 97.8%); format: functional
[4] = Cell cycle arrest in human ALL5 cells assessed as accumulation at G2 phase at 25 uM after 48 hrs by propidium iodide staining based flow cytometric analysis (reference value: 13.6 %); format: functional
[5] = Cell cycle arrest in human ALL5 cells assessed as accumulation at subG1 phase at 25 uM after 96 hrs by propidium iodide staining based flow cytometric analysis (reference value: 3.44 %); format: functional
[6] = Cell cycle arrest in human ALL5 cells assessed as accumulation at subG1 phase at 25 uM after 120 hrs by propidium iodide staining based flow cytometric analysis (reference value: 3.44 %); format: functional
[7] = Cell cycle arrest in human ALL5 cells assessed as accumulation at G1 phase at 25 uM after 48 hrs by propidium iodide staining based flow cytometric analysis (reference value: 70.5 %); format: functional
[8] = Cell cycle arrest in human ALL5 cells assessed as accumulation at S phase at 25 uM after 96 hrs in presence of CDK4/6 inhibitor palbociclib by propidium iodide staining based flow cytometric analysis (reference value: 0.07%); format: functional
[9] = Cell cycle arrest in human ALL5 cells assessed as accumulation at G1 phase at 25 uM after 96 hrs by propidium iodide staining based flow cytometric analysis (reference value: 70.5 %); format: functional
[10] = Cell cycle arrest in human ALL5 cells assessed as accumulation at G1 phase at 25 uM after 120 hrs by propidium iodide staining based flow cytometric analysis (reference value: 70.5 %); format: functional
[11] = Cell cycle arrest in human ALL5 cells assessed as accumulation at G2 phase at 25 uM after 120 hrs by propidium iodide staining based flow cytometric analysis (reference value: 13.6 %); format: functional
HeLa = experiment: Cytotoxicity against human HeLa cells up to 10 uM after 72 hrs by MTT method; format: functional, cell-based
[12] = Cell cycle arrest in human ALL5 cells assessed as accumulation at subG1 phase at 25 uM after 96 hrs in presence of CDK4/6 inhibitor palbociclib by propidium iodide staining based flow cytometric analysis (reference value: 1.47%); format: functional
[13] = Cell cycle arrest in human ALL5 cells assessed as accumulation at G2 phase at 25 uM after 96 hrs in presence of CDK4/6 inhibitor palbociclib by propidium iodide staining based flow cytometric analysis (reference value: 0.64%); format: functional
[14] = Cell cycle arrest in human ALL5 cells assessed as accumulation at S phase at 25 uM after 96 hrs by propidium iodide staining based flow cytometric analysis (reference value: 11.7 %); format: functional
[15] = Cell cycle arrest in human ALL5 cells assessed as accumulation at S phase at 25 uM after 120 hrs by propidium iodide staining based flow cytometric analysis (reference value: 11.7 %); format: functional
ALL5 [16] = experiment: Increase in p53 expression in human ALL5 cells at 25 uM after 96 hrs by Western blot analysis; format: functional, cell-based
[17] = Cell cycle arrest in human ALL5 cells assessed as accumulation at subG1 phase at 25 uM after 48 hrs by propidium iodide staining based flow cytometric analysis (reference value: 3.44 %); format: functional
[18] = Cell cycle arrest in human ALL5 cells assessed as accumulation at S phase at 25 uM after 48 hrs by propidium iodide staining based flow cytometric analysis (reference value: 11.7 %); format: functional
[19] = Cell cycle arrest in human ALL5 cells assessed as accumulation at G2 phase at 1 uM after 72 hrs by propidium iodide staining based flow cytometric analysis (reference value: 19.1%); format: functional
[20] = Cell cycle arrest in human ALL5 cells assessed as accumulation at S phase at 1 uM after 72 hrs by propidium iodide staining based flow cytometric analysis (reference value: 15.2%); format: functional
[21] = Cell cycle arrest in human ALL5 cells assessed as accumulation at G1 phase at 1 uM after 72 hrs by propidium iodide staining based flow cytometric analysis (reference value: 64.4%); format: functional
[22] = Cell cycle arrest in human ALL5 cells assessed as accumulation at subG1 phase at 1 uM after 72 hrs by propidium iodide staining based flow cytometric analysis (reference value: 0.54 %); format: functional
[23] = Cell cycle arrest in human ALL5 cells assessed as accumulation at S phase at 17 uM after 96 hrs by propidium iodide staining based flow cytometric analysis (reference value: 11.7 %); format: functional
[24] = Cell cycle arrest in human ALL5 cells assessed as accumulation at G2 phase at 17 uM after 96 hrs by propidium iodide staining based flow cytometric analysis (reference value: 13.6 %); format: functional
ALL5 [25] = experiment: Increase in p53 expression in human ALL5 cells at 17 uM after 96 hrs by Western blot analysis; format: functional, cell-based
[26] = Cell cycle arrest in human ALL5 cells assessed as accumulation at G1 phase at 17 uM after 120 hrs by propidium iodide staining based flow cytometric analysis (reference value: 70.5 %); format: functional
[27] = Cell cycle arrest in human ALL5 cells assessed as accumulation at subG1 phase at 17 uM after 96 hrs by propidium iodide staining based flow cytometric analysis (reference value: 3.44 %); format: functional
[28] = Cell cycle arrest in human ALL5 cells assessed as accumulation at G2 phase at 17 uM after 96 hrs in presence of CDK4/6 inhibitor palbociclib by propidium iodide staining based flow cytometric analysis (reference value: 0.64%); format: functional
[29] = Cell cycle arrest in human ALL5 cells assessed as accumulation at S phase at 17 uM after 96 hrs in presence of CDK4/6 inhibitor palbociclib by propidium iodide staining based flow cytometric analysis (reference value: 0.07%); format: functional
[30] = Cell cycle arrest in human ALL5 cells assessed as accumulation at subG1 phase at 17 uM after 48 hrs by propidium iodide staining based flow cytometric analysis (reference value: 3.44 %); format: functional
[31] = Cell cycle arrest in human ALL5 cells assessed as accumulation at subG1 phase at 17 uM after 120 hrs by propidium iodide staining based flow cytometric analysis (reference value: 3.44 %); format: functional
[32] = Cell cycle arrest in human ALL5 cells assessed as accumulation at S phase at 17 uM after 48 hrs by propidium iodide staining based flow cytometric analysis (reference value: 11.7 %); format: functional
[33] = Cell cycle arrest in human ALL5 cells assessed as accumulation at G2 phase at 17 uM after 48 hrs by propidium iodide staining based flow cytometric analysis (reference value: 13.6 %); format: functional
[34] = Cell cycle arrest in human ALL5 cells assessed as accumulation at G1 phase at 17 uM after 96 hrs by propidium iodide staining based flow cytometric analysis (reference value: 70.5 %); format: functional
[35] = Cell cycle arrest in human ALL5 cells assessed as accumulation at S phase at 17 uM after 120 hrs by propidium iodide staining based flow cytometric analysis (reference value: 11.7 %); format: functional
[36] = Cell cycle arrest in human ALL5 cells assessed as accumulation at subG1 phase at 17 uM after 96 hrs in presence of CDK4/6 inhibitor palbociclib by propidium iodide staining based flow cytometric analysis (reference value: 1.47%); format: functional
[37] = Cell cycle arrest in human ALL5 cells assessed as accumulation at G1 phase at 17 uM after 48 hrs by propidium iodide staining based flow cytometric analysis (reference value: 70.5 %); format: functional
[38] = Cell cycle arrest in human ALL5 cells assessed as accumulation at G2 phase at 17 uM after 120 hrs by propidium iodide staining based flow cytometric analysis (reference value: 13.6 %); format: functional
[39] = Cell cycle arrest in human ALL5 cells assessed as accumulation at G1 phase at 17 uM after 96 hrs in presence of CDK4/6 inhibitor palbociclib by propidium iodide staining based flow cytometric analysis (reference value: 97.8%); format: functional

## O=C(/C=C/c1ccc(O)cc1)Oc1ccc(/C=C/c2cc(OC(=O)/C=C/c3ccc(O)cc3)cc(OC(=O)/C=C/c3ccc(O)cc3)c2)cc1
[1]
  IC50: > 10 µM

## O=C(/C=C/c1ccccc1)Oc1ccc(/C=C/c2cc(OC(=O)/C=C/c3ccccc3)cc(OC(=O)/C=C/c3ccccc3)c2)cc1
[1]
  IC50: > 10 µM

## COc1cc(/C=C/C(=O)Oc2ccc(/C=C/c3cc(OC(=O)/C=C/c4ccc(O)c(OC)c4)cc(OC(=O)/C=C/c4ccc(O)c(OC)c4)c3)cc2)ccc1O
[1]
  IC50: 10 µM

## COc1ccc(/C=C/C(=O)Oc2ccc(/C=C/c3cc(OC(=O)/C=C/c4ccc(OC)c(OC)c4)cc(OC(=O)/C=C/c4ccc(OC)c(OC)c4)c3)cc2)cc1OC
[1]
  IC50: > 10 µM

## CC(C)C(=O)Oc1ccc(/C=C/c2cc(OC(=O)C(C)C)cc(OC(=O)C(C)C)c2)cc1
[2]
  Activity: 0.34%
[3]
  Activity: 93.6%
[4]
  Activity: 2.02%
[5]
  Activity: 48.1%
[6]
  Activity: 63.7%
[7]
  Activity: 72.5%
[8]
  Activity: 0.21%
[1]
  IC50: 5.1 µM
[9]
  Activity: 44.8%
[10]
  Activity: 26.1%
[11]
  Activity: 0.49%
HeLa
  Activity: inactive
[12]
  Activity: 5.76%
[13]
  Activity: 0.45%
[14]
  Activity: 6.34%
[15]
  Activity: 9.11%
ALL5 [16]
  Activity: Active
[17]
  Activity: 23.1%
[18]
  Activity: 2.14%

## O=C(Oc1ccc(/C=C/c2cc(OC(=O)c3ccccc3)cc(OC(=O)c3ccccc3)c2)cc1)c1ccccc1
[1]
  IC50: > 10 µM

## O=C(Oc1ccc(/C=C/c2cc(OC(=O)c3c(Cl)cccc3Cl)cc(OC(=O)c3c(Cl)cccc3Cl)c2)cc1)c1c(Cl)cccc1Cl
[1]
  IC50: > 10 µM

## CCCCCCCCCC(=O)Oc1ccc(/C=C/c2cc(OC(=O)CCCCCCCCC)cc(OC(=O)CCCCCCCCC)c2)cc1
[1]
  IC50: > 10 µM

## CC(C)CC(=O)Oc1ccc(/C=C/c2cc(OC(=O)CC(C)C)cc(OC(=O)CC(C)C)c2)cc1
[2]
  Activity: 2.2%
[3]
  Activity: 91.6%
[4]
  Activity: 6.99%
[5]
  Activity: 59.4%
[6]
  Activity: 69.9%
[7]
  Activity: 66.4%
[8]
  Activity: 0.28%
[1]
  IC50: 4.9 µM
[9]
  Activity: 32.5%
[10]
  Activity: 24.5%
[11]
  Activity: 0.86%
HeLa
  Activity: inactive
[12]
  Activity: 7.6%
[13]
  Activity: 0.46%
[14]
  Activity: 5.14%
[15]
  Activity: 4.32%
ALL5 [16]
  Activity: Active
[17]
  Activity: 16.4%
[18]
  Activity: 9.6%

## Oc1ccc(/C=C/c2cc(O)cc(O)c2)cc1 [RESVERATROL]
[1]
  IC50: 10.5 µM

## CC(=O)c1c(C)c2cnc(Nc3ccc(N4CCNCC4)cn3)nc2n(C2CCCC2)c1=O [PALBOCICLIB]
[19]
  Activity: 0.8%
[20]
  Activity: 0.29%
[21]
  Activity: 98.1%
[22]
  Activity: 0.76%

## O=C(CCl)Oc1ccc(/C=C/c2cc(OC(=O)CCl)cc(OC(=O)CCl)c2)cc1
[1]
  IC50: 10 to 10.5 µM

## COc1cc(C(=O)Oc2ccc(/C=C/c3cc(OC(=O)c4cc(OC)c(OC)c(OC)c4)cc(OC(=O)c4cc(OC)c(OC)c(OC)c4)c3)cc2)cc(OC)c1OC
[1]
  IC50: > 10 µM

## CC(=O)Oc1ccc(/C=C/c2cc(OC(C)=O)cc(OC(C)=O)c2)cc1 [TRIACETYLRESVERATROL]
[23]
  Activity: 16%
[24]
  Activity: 13.1%
ALL5 [25]
  Activity: Active
[26]
  Activity: 18.5%
[1]
  IC50: 3.4 µM
[27]
  Activity: 54.6%
[28]
  Activity: 0.54%
[29]
  Activity: 0.06%
[30]
  Activity: 12.3%
[31]
  Activity: 60.9%
HeLa
  Activity: inactive
[32]
  Activity: 20.8%
[33]
  Activity: 3.23%
[34]
  Activity: 15.5%
[35]
  Activity: 12.5%
[36]
  Activity: 1.33%
[37]
  Activity: 62.5%
[38]
  Activity: 7.59%
[39]
  Activity: 98.1%

## COc1cc(/C=C/C(=O)Oc2ccc(/C=C/c3cc(OC(=O)/C=C/c4cc(OC)c(O)c(OC)c4)cc(OC(=O)/C=C/c4cc(OC)c(O)c(OC)c4)c3)cc2)cc(OC)c1O
[1]
  IC50: > 10 µM

## COc1cccc(C(=O)Oc2ccc(/C=C/c3cc(OC(=O)c4cccc(OC)c4OC)cc(OC(=O)c4cccc(OC)c4OC)c3)cc2)c1OC
[1]
  IC50: > 10 µM

## O=C(/C=C/c1cccc(O)c1)Oc1ccc(/C=C/c2cc(OC(=O)/C=C/c3cccc(O)c3)cc(OC(=O)/C=C/c3cccc(O)c3)c2)cc1
[1]
  IC50: 10 µM
